These results are taken from paper PMC6453916, “Radical-mediated C-S bond cleavage in C2 sulfonate degradation by anaerobic bacteria” (Nature Communications, 2019).

The target in series [1] is T1, TauF (BwTauF, sulfoacetaldehyde reductase) (Bilophila wadsworthia, UniProt E5Y946).
T1 construct: gene sarD; codon-optimised, His6-TEV (HT) vector, E. coli
T1 sequence (E5Y946 1-387): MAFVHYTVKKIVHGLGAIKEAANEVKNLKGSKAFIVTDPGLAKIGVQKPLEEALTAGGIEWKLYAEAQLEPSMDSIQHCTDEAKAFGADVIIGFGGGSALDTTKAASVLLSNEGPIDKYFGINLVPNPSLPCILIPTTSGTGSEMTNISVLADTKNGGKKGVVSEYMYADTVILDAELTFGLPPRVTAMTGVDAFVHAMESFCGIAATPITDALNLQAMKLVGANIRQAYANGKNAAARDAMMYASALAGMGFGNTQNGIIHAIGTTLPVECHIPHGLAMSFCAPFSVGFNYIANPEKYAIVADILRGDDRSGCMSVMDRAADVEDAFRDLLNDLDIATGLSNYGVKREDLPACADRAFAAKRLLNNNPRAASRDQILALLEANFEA
The series is described as follows: NADH oxidation at […] nm. It is filed as biochemical. Particulars: 5 mM sulfoacetaldehyde (introduced as bisulfite adduct), 0.5 mM NADH, 0.1 M Tris pH 7.5, 0.1 M KCl.

Series [2] addresses IseG (−23 a.a.), isethionate sulfo-lyase from Desulfovibrio vulgaris Hildenborough with an N-terminal 23-a.a. truncation (Desulfovibrio vulgaris Hildenborough) (UniProt Q727N1). The series is described as follows: SEC; 2.5 mg/mL IseG (−23 a.a.), 2 mL on a Superdex 200 column (300 mL), buffer D (10 mM HEPES/KOH pH 7.4, 250 mM KCl, 10 mM BME), 3 mL/min; mass from elution volume against molecular weight markers (observed 196 kDa, monomer calculated 91.3 kDa).

Series [3] addresses T2, DpIseK (substrate-binding subunit of the IseG-associated TRAP transporter) (Desulfovibrio piger, UniProt A0A1K1LFE7).
T2 construct: gene DESPIGER_1592; soluble periplasmic subunit, codon-optimised, expressed as His6-MBP-TEV fusion; MBP tag cleaved and removed before ITC
Kind of series: isothermal titration calorimetry.

Substrate in the series “purified protein”: O=S(=O)(O)CCO
The series is described as follows: purified protein. It is filed as biochemical, Nitratidesulfovibrio vulgaris. The note with it: IseG activated by IseH, SAM and Ti(III) citrate; anaerobic, room temperature, 250 nM IseG.

T2 sequence (A0A1K1LFE7 24-332): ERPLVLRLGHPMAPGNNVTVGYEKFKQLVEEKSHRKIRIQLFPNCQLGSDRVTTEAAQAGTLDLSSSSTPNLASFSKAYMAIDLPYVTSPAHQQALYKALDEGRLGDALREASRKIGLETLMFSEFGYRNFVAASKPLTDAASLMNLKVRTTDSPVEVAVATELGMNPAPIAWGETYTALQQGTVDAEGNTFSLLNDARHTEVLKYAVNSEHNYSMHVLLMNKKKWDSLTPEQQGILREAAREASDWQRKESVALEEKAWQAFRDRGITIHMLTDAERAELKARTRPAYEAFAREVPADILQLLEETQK

As for `NC(=O)C1=CN([C@@H]2O[C@H](COP(=O)(O)OP(=O)(O)OC[C@H]3O[C@@H](n4cnc5c(N)ncnc54)[C@H](O)[C@@H]3O)[C@@H](O)[C@H]2O)C=CC1` [NADH], the “NADH oxidation at 340 nm” value in series [1] is “demonstrates that BwTauF is a sulfoacetaldehyde reductase”.

Consider `O=CCS(=O)(=O)O` [sulfoacetaldehyde], for which, in series [1], the “NADH oxidation at 340 nm” value is “TauF, catalyzed NADH-dependent reduction of sulfoacetaldehyde”.

In general, stoichiometry N refers to a count of units in the complex or per binding partner. For “IseG (−23 a.a.), isethionate sulfo-lyase from Desulfovibrio vulgaris Hildenborough with an N-terminal 23-a.a. truncation (from UniProt Q727N1 24-828) (enzyme)”, the stoichiometry N in series [2] was 2.

A word on the Kd: it is the equilibrium constant for the complex coming apart. `O=S(=O)(O)CCO` [isethionate] showed a dissociation constant (Kd) in series [3] of 500 nM.

B1: IseG (GUF, isethionate sulfo-lyase) (Nitratidesulfovibrio vulgaris str. Hildenborough) (protein)
chain: MQCCNQLSPHEQRLQDKIEGKVDRYRATHERVFTILESFDNTRPRIDVERAKYFTESMKATEGQPLPLRWAKALMHIAENMTVYIDDHQLICGRAGYQGRYGVLYPELDGDFLGTAIEDLPNRAESPFAITPEDARVVVEEIAPFWKGKTYHEALNLALPADVHKLTYDDPQGLMSRFIVNETSSFRSSIQWVHDYEKVLKRGFRSIKEEALEKIAALDPMSPCDNVEKRPFLEAIVIVCDAIILWAKRHAKLAAELAAKETDPTRKRELETMAEICAWVPENPARTFHEAVQAQWFTQVFSRIEQKTGTIVSNGRMDQYFWPFYEKDLAEGRITEDSALELLECMWVGMAQYVDLYISPTGGAFNEGYAHWEAVTIGGQTPEGRDATNDLTYLFLKSKREFPLHYPDLAARIHSRSPERYLWEVAETIKDGSGFPKLINDEEVVPLYVSKGATFAEALDYAVSGCTEARMPNRDTYTSGGAYINFAAALEMVLYNGKMLKYGDTDLGAHTGDPCEFKTWEEFWNAYVTQHHLFLKTAFVQQHIINNLRARHFAQPMGSSLHDLCMKHCLDLHTPQIPEGINLGYFEYMGFGTVVDSLSAIKKLVFEDKKLTMGELIEALKCNFEGKEDIQQLLKSAPCYGNNDDYADSIARDIDALSVKYGRRYSPELGMHNDVRYVPFTSHVPFGRVVSATPNGRKAWSALSDGSSASHGADVNGPTAILQSNFNSKNYGMRDRAARMLNIKFTPKCVEGEEGSQKLVSFIRTFCDLKLWHVQFNVINKETLLAAQRDPEKYRNLIVRIAGYSAYFVDLSPDLQNDLIARTGHDVM
notes: pET-28a(+)-His6-IseG, codon-optimised, full length, His tag kept, E. coli BL21(DE3); dimer; glycyl radical installed by IseH/SAM/Ti(III) citrate
For orientation: Km means the concentration of substrate that gives half-maximal velocity. What is called kcat is the number of substrate molecules converted per active site and unit of time at saturation. Take B1: in “purified protein”, the Km worked out at 44.8 ± 3.5 mM and the catalytic constant (kcat) is 91.6 ± 3.3 s⁻¹.
